How the values were obtained:
[1] = test system: human induced hepatic stem cells AFB1-1; assay: Quantitative RT-PCR of marker genes, hepatic differentiation on Matrigel (Examples 2-4); assay type: cell-based; conditions: no feeder cells, 13 days, No. 377 taken as 1
[2] = test system: human induced hepatic stem cells AFB 1-1; assay: AFP in culture supernatant, suspension (three-dimensional) culture (Examples 6-10); assay type: cell-based; conditions: cell samples Nos. 473-475: suspension culture, ReproStem (bFGF-free)/Y-27632 5 μM, low-attachment plate, no feeder cells, 7 days after seeding; A-83-01 0.1 μM, OsM 10 ng/mL, DEX 0.1 μM where present
Procedure: The cell pellets were lysed in 1 mL/well of a QIAzol reagent (refer to Table 8B).
Six days after the seeding, the cells were recovered centrifugally and then suspended in 2 mL of a fresh ReproStem (bFGF-free)/Y-27632 (5 μM) supplemented with 10 ng/mL oncostatin M (OsM) and 0.1 μM dexamethasone (DEX), to continue hepatic differentiation culture in the above culture plate. […] The cell pellets were lysed in 1 mL/well of a QIAzol reagent (refer to Table 8B).

[3] = test system: human induced hepatic stem cells AFB1-1; assay: Quantitative RT-PCR, differentiation with TGF-β signaling inhibitors (Example 12); assay type: cell-based; conditions: cell samples Nos. 1545-1549: 0.5 μM inhibitor in ReproStem (bFGF-free), no feeder cells, Matrigel, 13 days after seeding
Procedure: The resultant cell samples are respectively referred to as “Nos. 1545-1549”. No. 1544 was cultured in the absence of any inhibitor. Nos. 1545-1549 were cultured in the presence of the following inhibitors, respectively.
Thirteen days after the seeding, the cells were lysed in 1 mL/well of a QIAzol reagent to prepare the total RNA from the cell lysate using the miRNeasy Mini Kit (Qiagen). The total RNA was subjected to quantitative RT-PCR using the iScript Advanced cDNA synthesis kit, the SsoAdvanced SYBR Green Supremix ([…]), and the CFX96 Real-Time System C1000 Thermal Cycler, all manufactured by Bio-Rad. The quantified genes were ALB, AAT, TTR, AFP, cytokeratin 7 (KRT7), cytokeratin 19 (KRT19), and DLK1 (Delta-like 1 homolog).

[4] = test system: human induced hepatic stem cells AFB1-1; assay: AFP in culture supernatant (Example 13); assay type: cell-based; conditions: cell sample No. 835: 0.5 μM A-83-01/ReproStem (bFGF-free), no feeder cells, Matrigel
Text: The medium was replaced everyday with a fresh human ES/iPS cell medium (mTeSR1) to continue culture until reaching 50-80% confluence per dish. […] The resultant cell sample is referred to as “No. 835”.

[5] = test system: human induced hepatic stem cells AFB1-1; assay: AFP in culture supernatant (Example 18); assay type: cell-based; conditions: cell sample No. 705: A-83-01 (0.5 μM at start, 0.1 μM at medium changes)/ReproStem (bFGF-free), no feeder cells, Matrigel
[6] = test system: human induced hepatic stem cells AFB1-1; assay: AFP in culture supernatant, collagen coat (Example 19); assay type: cell-based; conditions: no feeder cells
ALK 4 = conditions: cited from earlier work
[7] = test system: type I receptor for the osteogenic factor; conditions: cited from earlier work
p38 MAP kinase = conditions: cited from earlier work
[8] = test system: extracellular signal regulated kinase; conditions: cited from earlier work
[9] = test system: phosphorylation of Smad2/3; conditions: cited from earlier work
[10] = test system: TGF-β induced epithelial-mesenchymal transformation; conditions: cited from earlier work
rat iPS cells = conditions: added to a rat iPS cell culture medium; cited from earlier work
[11] = test system: human induced hepatic stem cells AFB1-1; assay: AFP in culture supernatant, hepatic differentiation on Matrigel (Examples 2-4); conditions: no feeder cells, 13 days after seeding
[12] = cell sample No. 393: 0.1 μM A-83-01/mTeSR1 + 100 ng/mL bFGF
[13] = cell sample No. 394: 0.1 μM A-83-01/aFGF 10 ng/mL/ReproStem (bFGF-free)

SMILES: Cc1cccc(-c2nn(C(=S)Nc3ccccc3)cc2-c2ccnc3ccccc23)n1 [A-83-01, 3-(6-methyl-2-pyridinyl)-N-phenyl-4-(4-quinolinyl)-1H-pyrazolo-1-carbothioamide]
- AAT expression level [1, 12]: 240
- AFP expression level [1, 12]: 1,791
- ALB expression level [1, 12]: 1,925
- DLK1 expression level [1, 12]: 404
- TTR expression level [1, 12]: 2,871
- AAT expression level [1, 13]: 3,812
- AFP expression level [1, 13]: 12,812
- AHSG expression level [1, 13]: 14,079
- ALB expression level [1, 13]: 45,698
- APOA4 expression level [1, 13]: 966
- DLK1 expression level [1, 13]: 804
- FABP1 expression level [1, 13]: 3,034
- FGG expression level [1, 13]: 10,138
- FOXA2 expression level [1, 13]: 0.19
- HGF expression level [1, 13]: 11
- HNF1A expression level [1, 13]: 0.88
- HNF4A expression level [1, 13]: 0.39
- KRT7 expression level [1, 13]: 37.5
- NANOG expression level [1, 13]: 0.01
- OCT3/4 (POU5F1) expression level [1, 13]: 0.07
- RBP4 expression level [1, 13]: 4,326
- SOX2 expression level [1, 13]: 0.08
- SOX17 expression level [1, 13]: 0.03
- TF expression level [1, 13]: 9,126
- TTR expression level [1, 13]: 9,113
- α-fetoprotein (AFP) in culture supernatant [2]: 324 ng/mL
- AAT expression Ct value [3]: 23.57
- AFP expression Ct value [3]: 17.21
- ALB expression Ct value [3]: 20.95
- DLK1 expression Ct value [3]: 18.15
- KRT7 expression Ct value [3]: 20.51
- KRT19 expression Ct value [3]: 22.05
- TTR expression Ct value [3]: 16.96
- GAPDH expression Ct value ([3]; housekeeping gene): 14.22
- AFP yield (culture supernatant) ([4]; 6 days after the seeding): 6,430 ng/mL
- AFP yield (culture supernatant) ([4]; 13 days after the seeding): 30,900 ng/mL
- AFP expression level (culture supernatant) ([5]; 8 days after the seeding): 5,540 ng/mL
- AFP expression level (culture supernatant) ([5]; 13 days after the seeding): 2,320 ng/mL
- AFP expression level (culture supernatant) ([6]; cell sample No. 634: 0.1 μM A-83-01/ReproStem (bFGF-free), collagen plate without Matrigel, 6 days after the seeding): 2,890 ng/mL
- AFP expression level (culture supernatant) ([6]; cell sample No. 634: 0.1 μM A-83-01/ReproStem (bFGF-free), collagen plate without Matrigel, 14 days after the seeding): 24,900 ng/mL
- AFP expression level (culture supernatant) ([6]; cell sample No. 637: 0.1 μM A-83-01/ReproStem (bFGF-free), collagen plate coated with Matrigel, 6 days after the seeding): 3,040 ng/mL
- AFP expression level (culture supernatant) ([6]; cell sample No. 637: 0.1 μM A-83-01/ReproStem (bFGF-free), collagen plate coated with Matrigel, 14 days after the seeding): 30,000 ng/mL
- IC50 (ALK 4): 12 nM
- effect on type I receptor for the osteogenic factor [7]: little or no effect
- effect on p38 MAP kinase (p38 MAP kinase): little or no effect
- effect on the extracellular signal regulated kinase [8]: little or no effect
- phosphorylation of Smad2/3 [9]: inhibits
- TGF-β induced epithelial-mesenchymal transformation [10]: inhibits
- culture of rat iPS cells (rat iPS cells): allows uniform proliferation and prolonged culture of rat iPS cells without differentiation
- α-fetoprotein (AFP) in culture supernatant [11, 12]: 3,120 ng/mL
- α-fetoprotein (AFP) in culture supernatant [11, 13]: 14,400 ng/mL

Reference: patent US20130071931A1, “PROCESS FOR HEPATIC DIFFERENTIATION FROM INDUCED HEPATIC STEM CELLS, AND INDUCED HEPATIC PROGENITOR CELLS DIFFERENTIATED THEREBY” (NATIONAL CANCER CENTER, priority 2011, published 2013)
